The values that follow come from PubChem BioAssay (NCI).

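Briefly, cells in 96-well plates were exposed to five compound concentrations for 48 h, and endpoints were estimated by linear interpolation. Here, GI50 denotes the concentration required for 50% inhibition of growth. TGI marks complete inhibition of growth.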 A value given as a limit tells only on which side of the number the result lay.

Common to all, as to assay: DTP human tumour cell line panel, 48 h
Assay [1] relates to DMS 114 small cell lung.
Assay [2] has as its system SNB-78 CNS.
Assay [3] relates to DMS 273 small cell lung.
Assay [4] concerns HOP-18 NSCLC.
Assay [5] concerns XF 498 CNS.
Assay [6] deals with DLD-1 colon.
The subject of assay [7] is KM20L2 colon.
For assay [8], the system named is MDA-N.

For orientation: TGI means the concentration giving total growth inhibition. Low readings indicate more potent growth arrest, high ones less potent growth arrest. Turning to `COC(=O)C1CCC(Nc2cccc(C(F)(F)F)c2)=N1` (centres undefined), the TGI in assay [1], in assay [2], in assay [3], in assay [4], in assay [5] and in assay [6] was over 100 µM throughout.

In the case of `N#CCC(=O)N/N=C1\C(=O)N(c2ccc(Cl)cc2)C(=O)C(=O)C1c1nc2ccccc2o1` (centres undefined), the TGI in assay [1], in assay [2], in assay [3], in assay [4], in assay [7] and in assay [6] was over 100 µM each time.

Consider `C=C(CS(=O)(=O)c1ccccc1)[P+](c1ccccc1)(c1ccccc1)c1ccccc1`, for which the TGI in assay [1] is 58.7 µM; in assay [2], over 100 µM; in assay [3], 33.4 µM; in assay [7], 32.8 µM; in assay [5], 28.9 µM; in assay [6], over 100 µM.

As to `CC(=O)OC1C(CCl)OC(N=[N+]=[N-])C(OC(C)=O)C1OC(C)=O` (centres undefined), the TGI in assay [1], in assay [3], in assay [7], in assay [5] and in assay [6] was over 100 µM each time.

As for `C/C(=N/NC(=O)C(N)=O)C(CC(C(=O)Nc1ccccc1C)/C(C)=N\NC(=O)C(N)=O)C(=O)Nc1ccccc1C` (centres undefined), the TGI in assay [2], in assay [7] and in assay [6] was over 100 µM each time.

On to `Cc1ccccc1N=Nc1c(O)[nH]c2ccccc12`, for which the total growth inhibition concentration (TGI) in assay [8] was over 100 µM.

As for `C[C@H]1CC[C@@H]2[C@@H](C)[C@H]3[C@H](C[C@H]4[C@@H]5CC=C6C[C@@H](O)CC[C@]6(C)[C@H]5C[C@H](O)[C@]34C)N2C1`, the total growth inhibition concentration (TGI) in assay [8] was over 100 µM.

With `COc1cc2cc[n+]3c4cc(OC)c(OC)cc4c(C)cc3c2cc1OC`, the TGI in assay [1], in assay [2], in assay [3], in assay [4], in assay [7] and in assay [5] was over 100 µM throughout. In assay [6], this molecule came in with a TGI of over 100 µM.

As to `Clc1ccc(OC2CCO2)cc1Cl` (centres undefined), the TGI in assay [1], in assay [2], in assay [3], in assay [4], in assay [7] and in assay [6] was over 100 µM throughout.

Consider `CCN(CC)CCNC(=O)c1cccc2cc3ccccc3nc12`, for which the TGI was 19.2 µM in assay [1]; 57 µM in assay [2]; 24.3 µM in assay [3]; 88.5 µM in assay [4]; 20.7 µM in assay [6].

With `O=c1c2cc(Br)cc(Br)c2[nH]c(=S)n1-c1ccccc1`, the TGI is over 100 µM in assay [1]; over 100 µM in assay [2]; over 100 µM in assay [3]; over 100 µM in assay [4]; over 100 µM in assay [7]; 78.9 µM in assay [5]. In assay [6], this molecule yielded a TGI of over 100 µM.

Turning to `CN(c1ccccc1)C1C(=O)N(c2ccccc2)C1/C=C/c1ccccc1` (centres undefined), the TGI in assay [2], in assay [3] and in assay [6] was over 100 µM each time.

Consider `CN1c2ccccc2S(=O)(=O)n2c(COc3ccc(Cl)cc3)nnc21`, for which the TGI in assay [8] is over 100 µM.

`CCC1CC(=O)N(SCC(N)C(=O)O)C1=O` (centres undefined) had a TGI in assay [8] of over 100 µM.

The term GI50 denotes the concentration at which growth is held to half of that of the control. With `CC1OC(OC2CC(O)C3(CO)C4C(O)CC5(C)C(C6=CC(=O)OC6)CCC5(O)C4CCC3(O)C2)C(O)C(O)C1O` (centres undefined), in assay [8], the GI50 is under 0.0195 µM and the TGI stood at 0.122 µM.

As to `N#CC(C#N)=CSc1ccccc1`, the TGI in assay [1] is 43 µM; in assay [3], 65.4 µM; in assay [4], over 100 µM; in assay [7] it was over 100 µM; in assay [5], over 100 µM; in assay [6], 63.3 µM.

Turning to `O=C(O)CCC1(Br)CCCCC(Br)C1=O` (centres undefined), the TGI in assay [1], in assay [2], in assay [3], in assay [4], in assay [7] and in assay [5] was over 100 µM in each case.

As for `CC(=O)OC1CCC2(C)C(=CCC3C2CCC2(C)C(C(C)C(=O)O)CCC32)C1` (centres undefined), the concentration for total growth inhibition (TGI) in assay [8] was over 100 µM.

Molecule `O=c1[nH]c(SCc2c(Cl)c(Cl)c(Cl)c(Cl)c2Cl)nc(=S)[nH]1` displayed a TGI in assay [8] of over 100 µM.

In turn, `CC1(C)CC2C=C(C=O)C3(C=O)CC3(C)C2C1` (centres undefined) came in with a TGI in assay [8] of 9.36 µM.

In the case of `O=C(O)CCCCn1cnc2c(=S)nc[nH]c21`, in assay [8], the TGI is over 100 µM.

For the molecule `O=C(NNC(=O)c1ccncc1)c1ccncc1`, in assay [8], the TGI was over 100 µM.

Turning to `O=C1/C(=C/c2ccccc2)CCC/C1=C\c1ccccc1`, the TGI in assay [1] is 24.3 µM; in assay [8], 7.71 µM; in assay [2], over 87.9 µM; in assay [3], 21.5 µM; in assay [4] it was 38.7 µM; in assay [7], 22.2 µM. The same molecule displayed a TGI in assay [6] of 8.83 µM.

`CC(=O)OC(C)(C)N=Nc1ccc(Br)cc1`: in assay [8], the TGI is over 100 µM.

`CCOC(=O)C(=O)N=Nc1nc2c(O)c3ccccc3c(O)c2s1`: the concentration for total growth inhibition (TGI) was found to be 3.39 µM in assay [1]; 3.2 µM in assay [8]; 8.48 µM in assay [2]; 9.2 µM in assay [3]; 7.06 µM in assay [4]; 32.1 µM in assay [7]. In addition, the total growth inhibition concentration (TGI) was 4.46 µM in assay [5] and 10.2 µM in assay [6].

In assay [8], `O=S1(=O)CS(=O)(=O)OCCCO1` yielded a TGI of over 100 µM.

As for `C=C1Oc2nc3ccccc3c(=O)n2C1(C)C`, the concentration for total growth inhibition (TGI) in assay [1], in assay [2], in assay [3], in assay [4], in assay [7] and in assay [5] was over 100 µM in each case. In assay [6], this molecule yielded a TGI of over 100 µM.

In the case of `COc1cccc(NC(=O)CC(=O)N2NC(C)C(N=Nc3cccc(C(=O)O)c3)C2=O)c1` (centres undefined), the concentration for total growth inhibition (TGI) in assay [1], in assay [2], in assay [3], in assay [4], in assay [7] and in assay [6] was over 100 µM throughout.

Turning to `CCN(CC)C(=S)SC1CCOP(=O)(N(CCCl)CCCl)N1C` (centres undefined), the TGI in assay [1] was 0.553 µM; in assay [8], over 100 µM; in assay [2], over 100 µM; in assay [3], over 79.4 µM; in assay [4], over 100 µM; in assay [7], over 100 µM. The same molecule gave a TGI in assay [6] of 21.3 µM.

Turning to `CCc1c(Cl)nc(Cl)nc1Cl`, the TGI in assay [8] was found to be 10.8 µM.

On to `O=c1c2ccccc2c(=O)c2c1cc(Cl)c1[nH]c3c([nH]c12)c(Cl)cc1c(=O)c2ccccc2c(=O)c13`, for which the TGI in assay [1], in assay [2], in assay [3], in assay [7] and in assay [6] was over 100 µM in each case.

Take `O=C(O)C1c2ccccc2C(C(=O)O)c2ccccc21` (centres undefined): the TGI in assay [1], in assay [2], in assay [3], in assay [4], in assay [7] and in assay [6] was over 100 µM each time.

Turning to `Cc1cc(C(=O)N2CCN(Cc3ccccc3)CC2)c(C)o1`, the TGI in assay [1], in assay [2], in assay [4], in assay [7], in assay [5] and in assay [6] was over 100 µM in each case.

`CCC[CH2][Sn]([CH2]CCC)([O]C(=O)c1nccnc1N)[O]C(=O)c1nccnc1N`: the GI50 in assay [2] is 0.388 µM; in assay [3], 0.869 µM; in assay [4], 2.32 µM; in assay [7], 1.59 µM; in assay [5], 1.38 µM; in assay [6], 0.876 µM. Further, the TGI in assay [2] amounted to 1.57 µM; in assay [3], 2.12 µM; in assay [4] it was 3.8 µM; in assay [7], 2.95 µM; in assay [5] it was 2.68 µM; in assay [6], 2.12 µM.

`O=C(O)C#CCO`: the TGI in assay [1], in assay [2], in assay [3] and in assay [5] was over 100 µM throughout.

`COc1cc2c3c(n(C)c(=O)c2cc1OC)-c1cc2c(cc1/C3=C\CCCBr)OCO2`: in assay [8], the GI50 is over 100 µM and the TGI was over 100 µM.

For the molecule `COc1cc([C@@H]2c3cc4c(cc3[C@H](O)[C@H]3COC(=O)[C@H]23)OCO4)cc(OC)c1OC`, the TGI in assay [8] is 0.5 µM; in assay [2], over 100 µM; in assay [4] it was over 100 µM; in assay [5], over 100 µM; in assay [6] it was over 100 µM.

As to `O=C(Nc1ccccc1Br)c1cccc([N+](=O)[O-])c1O`, the TGI was 18 µM in assay [1]; over 84.8 µM in assay [2]; over 48.8 µM in assay [3]; over 25.1 µM in assay [4]; 36.7 µM in assay [7]; over 100 µM in assay [6].

In the case of `COC(=O)c1ccc([N+](=O)[O-])c(O)c1`, the TGI in assay [8] is over 100 µM.

Take `CC1=C(/C=C/C(C)=C/C=C/C(C)=C/C(=O)Nc2ccc(O)cc2)C(C)(C)CCC1`: in assay [8], the TGI was determined as 8.35 µM.

The molecule `CC1(C)C(=S)C(C)(C)C1=S` had a concentration for total growth inhibition (TGI) in assay [8] of over 100 µM.
